# Test results from US9133154B2, “Substituted 3-phenylpropylamine derivatives for the treatment of ophthalmic diseases and disorders” (Acucela Inc., priority 2013, dated 2015).
# Tested on: isomerase (recovery of 11-cis-retinal after bleaching)
# Assay: In vivo murine isomerase assay
# Conditions: mice, oral gavage
# Experimental: The capability of compounds described herein to inhibit isomerase was determined by an in vivo murine isomerase assay. […] The recovery of 11-cis-retinal after bleaching can be used to estimate the activity of isomerase in vivo. Delayed recovery, as represented by lower 11-cis-retinal oxime levels, indicates inhibition of isomerization reaction.
# Mice were gavaged with the test compound. […] The mice were allowed to recover 2 hours in the dark. The animals were then sacrificed by carbon dioxide inhalation. Retinoids were extracted from the eye and the regeneration of 11-cis-retinal was assessed at various time intervals.
# After the mice were sacrificed, the eyes were immediately removed and placed in liquid nitrogen for storage.
# The eyes were placed in 500 μL of bis-tris propane buffer (10 mM, pH˜7.3) and 20 μL of 0.8M hydroxile amine (pH˜7.3). The eyes were cut up into small pieces with small iris scissors and then thoroughly homogenized at 30000 rpm with a mechanical homogenizer (Polytron PT 1300 D) in the tube until no visible tissue remained. 500 μL of methanol and 500 μL of heptane were added to each tube. The tubes were attached to a vortexer so that the contents were mixed thoroughly for 15 minutes in room temperature. The organic phase was separated from the aqueous phase by centrifugation for 10 min at 13K rpm, 4° C. 240 μL of the solution from the top layer (organic phase) was removed and transferred to clean 300 μl glass inserts in HPLC vials using glass pipette and the vials were crimped shut tightly.
# The samples were analyzed on an Agilent 1100 HPLC system with normal phase column: SILICA (Beckman Coutlier, dp 5 μm, 4.6 mM×250 mM). […] Loading volume for each sample was 100 μA detection wavelength was 360 nm. The area under the curve for 11-cis retinal oxime was calculated by Agilent Chemstation software and was recorded manually. Data processing was performed using Prizm software.
# Positive control mice (no compound administered) were sacrificed fully dark-adapted and the eye retinoids analyzed. Light (bleached) control mice (no compound administered) were sacrificed and retinoids isolated and analyzed immediately after light treatment.
# A time course study was performed to determine the isomerase inhibitory activity of the test compound. […] The animals were then “photo-bleached” (5000 Lux white light for 10 minutes) at 2, 4, 8, 16 and 24 hours after dosing, and returned to darkness to allow recovery of the 11-cis-retinal content of the eyes. Mice were sacrificed 2 hours after bleaching, eyes were enucleated, and retinoid content is analyzed by HPLC.
# Recovery control mice (vehicle-only treated) were light-treated and left to recover for 2 hours in the dark before sacrifice and analysis. Light control mice (vehicle only treated) were sacrificed for analysis immediately after photo-bleaching.
# An in vivo dose response isomerase inhibition study was performed with test compound. […] Recovery and retinoid analysis were performed as described above. Dark control mice were vehicle-only treated, sacrificed fully dark adapted without light treatment, and analyzed. Recovery control mice and light control mice were included in the study as per the initial phase.
smiles,measurement,setting,value
NCC[C@@H](O)c1cccc(OCC2CCOCC2)c1 [Example 1],% Inhibition,"dose 0.3 mg/kg, time 2 h",40.2%
same,% Inhibition,"dose 1 mg/kg, time 2 h",96.7%
same,% Inhibition,"dose 1 mg/kg, time 4 h",92.8%
